Reference: US12091409B2, “Ether linked triazoles as NRF2 activators” (ASTEX THERAPEUTICS LIMITED, priority 2016, dated 2024)
Counter-ions that a name gives are not always drawn.

System: NQO1 specific enzyme activity in BEAS-2B cells (marker for NRF2 activation)
Test: BEAS-2B NQO1 MTT Assay
Format: cell-based
Details: Homo sapiens, BEAS-2B, 48 h, NQO1 specific activity induction, 48 hours with compound
How it was run: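 Cells plated overnight at 37° C., 5% CO2, then exposed to compound for 48 hours. NQO1 activity read in crude lysates with MTT cocktail as kinetic absorbance at 570 nm over 30 minutes. pEC50 from Delta OD/min versus log concentration with a 3-parameter fit.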

Cc1ccc(C(OCc2cn(Cc3cccc(Cn4cc(CC(=O)O)nn4)c3)nn2)C(C)(C)C(=O)O)cc1CN1C[C@@H](C)Oc2ccccc2S1(=O)=O (stereo partly drawn) [Example 44, 3-((1-(3-((4-(Carboxymethyl)-1H-1,2,3-triazol-1-yl)methyl)benzyl)-1H-1,2,3-triazol-4-yl)methoxy)-2,2-dimethyl-3-(4-methyl-3-(((R)-4-methyl-1,1-dioxido-3,4-dihydro-2H-benzo[b][1,4,5]oxathiazepin-2-yl)methyl)phenyl)propanoic acid] and Cc1ccc(C(OCc2cn(Cc3cccc(Cn4cc(CCO)nn4)c3)nn2)C(C)(C)C(=O)O)cc1CN1C[C@@H](C)Oc2ccccc2S1(=O)=O (stereo partly drawn) [Example 40, 3-((1-(3-((4-(2-Hydroxyethyl)-1H-1,2,3-triazol-1-yl)methyl)benzyl)-1H-1,2,3-triazol-4-yl)methoxy)-2,2-dimethyl-3-(4-methyl-3-(((R)-4-methyl-1,1-dioxido-3,4-dihydro-2H-benzo[b][1,4,5]oxathiazepin-2-yl)methyl)phenyl)propanoic acid] fall in the same range of EC50: 100 to 1000 nM for the first, 100 to 1000 nM for the second.

Compared with CC[C@@H]1Cc2ccccc2S(=O)(=O)N(Cc2cc([C@@H](OCc3cn(CC)nn3)C(C)(C)C(=O)O)ccc2C)C1 [Example 77, (3R)-((1-ethyl-1H-1,2,3-triazol-4-yl)methoxy)-2,2-dimethyl-3-(4-methyl-3-(((R)-4-ethyl-1,1-dioxido-4,5-dihydrobenzo[f][1,2]thiazepin-2(3H)-yl)methyl)phenyl)propanoic acid], CC[C@H]1Cc2ccccc2S(=O)(=O)N(Cc2cc([C@@H](OCc3cn(C)nn3)C(C)(C)C(=O)O)ccc2C)C1 [Example 119, (R)-3-(3-(((S)-4-Ethyl-1,1-dioxido-4,5-dihydrobenzo[f][1,2]thiazepin-2(3H)-yl)methyl)-4-methylphenyl)-2,2-dimethyl-3-((1-methyl-1H-1,2,3-triazol-4-yl)methoxy)propanoic acid] is lower in EC50: 1 to 10 nM for the first, less than 1 nM for the second.

CCCn1cc(CO[C@H](c2ccc(C)c(CN3C[C@@H](C)Cc4ccccc4S3(=O)=O)c2)C(C)(C)C(=O)O)nn1 [Example 88, (R)-2,2-dimethyl-3-(4-methyl-3-(((S)-4-methyl-1,1-dioxido-4,5-dihydrobenzo[f][1,2]thiazepin-2(3H)-yl)methyl)phenyl)-3-((1-propyl-1H-1,2,3-triazol-4-yl)methoxy)propanoic acid] and CCCn1cc(CO[C@H](c2ccc(C)c(CN3C[C@@H](C)Cc4ncccc4S3(=O)=O)c2)C(C)(C)C(=O)O)nn1 [Example 89, (R)-2,2-dimethyl-3-(4-methyl-3-(((S)-4-methyl-1,1-dioxido-4,5-dihydropyrido[2,3-f][1,2]thiazepin-2(3H)-yl)methyl)phenyl)-3-((1-propyl-1H-1,2,3-triazol-4-yl)methoxy)propanoic acid] cannot be ordered by EC50: less than 1 nM for the first, less than 1 nM for the second.

First: CC[C@@H]1CN(Cc2cc([C@H](OCc3cn(C)nn3)C(C)(C)C(=O)O)ccc2C)Cc2ncccc2O1 [Example 111, (S)-methyl-3-(3-(((R)-2-ethyl-2,3-dihydropyrido[2,3-f][1,4]oxazepin-4(5H)-yl)methyl)-4-methyl-phenyl)-2,2-dimethyl-3-((1-methyl-1H-1,2,3-triazol-4-yl)-methoxy)-propanoic acid]
Second: CC[C@@H]1CN(Cc2cc([C@@H](OCc3cn(CC)nn3)C(C)(C)C(=O)O)ccc2C)Cc2ccccc2O1 [Example 117, (R)-methyl 3-((1-ethyl-1H-1,2,3-triazol-4-yl)-methoxy)-3-(3-(((R)-2-ethyl-2,3-dihydro-benzo[f][1,4]oxazepin-4(5H)-yl)methyl)-4-methylphenyl)-2,2-dimethyl-propanoic acid, trifluoroacetate]
The EC50 of the first is higher: 100 to 1000 nM for the first, 10 to 100 nM for the second. The second is the more potent here.

Compared with Cc1cc(Cn2cc(CO)nn2)cc(Cn2cc(COC(c3ccc(C)c(CN4C[C@@H](C)Oc5ccccc5S4(=O)=O)c3)C(C)(C)C(=O)O)nn2)c1 (stereo partly drawn) [Example 29, 3-((1-(3-((4-(Hydroxy-methyl)-1H-1,2,3-triazol-1-yl)methyl)-5-methylbenzyl)-1H-1,2,3-triazol-4-yl)methoxy)-2,2-dimethyl-3-(4-methyl-3-(((R)-4-methyl-1,1-dioxido-3,4-dihydro-2H-benzo[b][1,4,5]oxathiazepin-2-yl)methyl)phenyl)propanoic acid], CC[C@@H]1CN(Cc2cc(C(OCc3cn(Cc4cc(C)cc(Cn5cc(CO)nn5)c4)nn3)C(C)(C)C(=O)O)ccc2C)S(=O)(=O)c2ccccc2O1 (stereo partly drawn) [Example 27, 3-(3-(((R)-4-ethyl-1,1-dioxido-3,4-dihydro-2H-benzo[b][1,4,5]oxathiazepin-2-yl)methyl)-4-methylphenyl)-3-((1-(3-((4-(hydroxymethyl)-1H-1,2,3-triazol-1-yl)methyl)-5-methylbenzyl)-1H-1,2,3-triazol-4-yl)methoxy)-2,2-dimethylpropanoic acid] is lower in EC50: 10 to 100 nM for the first, 1 to 10 nM for the second. The second is the more potent here.

CCn1cc(COC(c2ccc(C)c(CN3CC(C)(C)Oc4ccccc4S3(=O)=O)c2)C(C)(C)C(=O)O)nn1 (stereo not shown) [Example 12, 3-(3-((4,4-dimethyl-1,1-dioxido-3,4-dihydro-2H-benzo[b][1,4,5]oxathiazepin-2-yl)methyl)-4-methylphenyl)-3-((1-ethyl-1H-1,2,3-triazol-4-yl)methoxy)-2,2-dimethylpropanoic acid] and CCCn1cc(COC(c2ccc(C)c(CN3CC(C)(C)Oc4ccccc4S3(=O)=O)c2)C(C)(C)C(=O)O)nn1 (stereo not shown) [Example 9, 3-(3-((4,4-Dimethyl-1,1-dioxido-3,4-dihydo-2H-benzo[b][1,4]oxathiazepin-2-yl)methyl)-4-methylphenyl)-2,2-dimethyl-3-((1-propyl-1H-1,2,3-triazol-4-yl)methoxy)-propanoic acid] fall in the same range of EC50: 1 to 10 nM for the first, 1 to 10 nM for the second.

First: CCn1cc(CO[C@@H](c2ccc(C)c(CN3C[C@H](C)Cc4ccncc4S3(=O)=O)c2)C(C)(C)C(=O)O)nn1 [Example 63, (3S)-((1-ethyl-1H-1,2,3-triazol-4-yl)methoxy)-2,2-dimethyl-3-(4-methyl-3-(((R)-4-methyl-1,1-dioxido-4,5-dihydropyrido[4,3-f][1,2]thiazepin-2(3H)-yl)methyl)phenyl)propanoic acid]
Second: CCn1cc(CO[C@H](c2ccc(C)c(CN3C[C@@H](C)Cc4ncccc4S3(=O)=O)c2)C(C)(C)C(=O)O)nn1 [Example 62, (3R)-((1-ethyl-1H-1,2,3-triazol-4-yl)methoxy)-2,2-dimethyl-3-(4-methyl-3-(((S)-4-methyl-1,1-dioxido-4,5-dihydropyrido[2,3-f][1,2]thiazepin-2(3H)-yl)methyl)phenyl)propanoic acid]
The EC50 of the first is higher: 1000 to 10000 nM for the first, less than 1 nM for the second. The second is the more potent here.

CCn1cc(COC(c2ccc(C)c(CN(Cc3ccccc3)S(=O)(=O)c3cccc(C(=O)O)c3)c2)C(C)(C)C(=O)O)nn1 (stereo not shown) [Example 95, 3-(N-benzyl-N-(5-(2-carboxy-1-((1-ethyl-1H-1,2,3-triazol-4-yl)methoxy)-2-methylpropyl)-2-methylbenzyl)sulfamoyl)benzoic acid] and COC(=O)C(C)(C)C(OCc1cn(Cc2cccc(-c3cccc(C(=O)O)n3)c2)nn1)c1ccc(C)c(CN2C[C@@H](C)Oc3ccccc3S2(=O)=O)c1 (stereo partly drawn) [Example 58, 6-(3-((4-((3-Methoxy-2,2-dimethyl-1-(4-methyl-3-(((R)-4-methyl-1,1-dioxido-3,4-dihydro-2H-benzo[b][1,4,5]oxathiazepin-2-yl)methyl)phenyl)-3-oxopropoxy)methyl)-1H-1,2,3-triazol-1-yl)methyl)-phenyl)picolinic acid] fall in the same range of EC50: 100 to 1000 nM for the first, 100 to 1000 nM for the second.

First: CCn1cc(CO[C@H](c2ccc(C)c(CN3C[C@H](C)Cc4ncccc4S3(=O)=O)c2)C(C)(C)C(=O)O)nn1 [Example 68, (3R)-((1-ethyl-1H-1,2,3-triazol-4-yl)methoxy)-2,2-dimethyl-3-(4-methyl-3-(((R)-4-methyl-1,1-dioxido-4,5-dihydropyrido[2,3-f][1,2]thiazepin-2(3H)-yl)methyl)phenyl)propanoic acid]
Second: COCCOCCn1cc(CO[C@H](c2ccc(C)c(CN3C[C@@H](C)Oc4ccccc4S3(=O)=O)c2)C(C)(C)C(=O)O)nn1 [Example 80, (R)-3-((1-(2-(2-methoxyethoxy)ethyl)-1H-1,2,3-triazol-4-yl)methoxy)-2,2-dimethyl-3-(4-methyl-3-(((R)-4-methyl-1,1-dioxido-3,4-dihydro-2H-benzo[b][1,4,5]oxathiazepin-2-yl)methyl)phenyl)propanoic acid]
The EC50 of the first is higher: 10 to 100 nM for the first, 1 to 10 nM for the second. The second is the more potent here.

First: CCCC(=O)N1CCC(Cn2cc(COC(c3ccc(C)c(CN4C[C@@H](C)Oc5ccccc5S4(=O)=O)c3)C(C)(C)C(=O)O)nn2)CC1 (stereo partly drawn) [Example 34, 3-((1-((1-Butyrylpiperidin-4-yl)methyl)-1H-1,2,3-triazol-4-yl)methoxy)-2,2-dimethyl-3-(4-methyl-3-(((R)-4-methyl-1,1-dioxido-3,4-dihydro-2H-benzo[b][1,4,5]oxathiazepin-2-yl)methyl)phenyl)propanoic acid]
Second: CCCN1CCC(Cn2cc(COC(c3ccc(C)c(CN4C[C@@H](C)Oc5ccccc5S4(=O)=O)c3)C(C)(C)C(=O)O)nn2)CC1 (stereo partly drawn) [Example 52, 2,2-Dimethyl-3-(4-methyl-3-(((R)-4-methyl-1,1-dioxido-3,4-dihydro-2H-benzo[b][1,4,5]oxathiazepin-2-yl)methyl)phenyl)-3-((1-((I-propylpiperidin-4-yl)methyl)-1H-1,2,3-triazol-4-yl)methoxy)propanoic acid]
The EC50 of the first is lower: 10 to 100 nM for the first, 100 to 1000 nM for the second. The first is the more potent here.

Compared with COCCOCCn1cc(CO[C@@H](c2ccc(C)c(CN3C[C@@H](C)Oc4ccccc4S3(=O)=O)c2)C(C)(C)C(=O)O)nn1 [Example 71, (3S)-((1-(2-(2-methoxyethoxy)ethyl)-1H-1,2,3-triazol-4-yl)methoxy)-2,2-dimethyl-3-(4-methyl-3-(((R)-4-methyl-1,1-dioxido-3,4-dihydro-2H-benzo[b][1,4,5]oxathiazepin-2-yl)methyl)phenyl)propanoic acid], Cc1ccc(C(OCc2cn(Cc3ccc(CN=[N+]=[N-])cc3)nn2)C(C)(C)C(=O)O)cc1CN1C[C@@H](C)Oc2ccccc2S1(=O)=O (stereo partly drawn) [Example 19, 3-((1-(4-(Azidomethyl)benzyl)-1H-1,2,3-triazol-4-yl)methoxy)-2,2-dimethyl-3-(4-methyl-3-(((R)-4-methyl-1,1-dioxido-3,4-dihydro-2H-benzo[b][1,4,5]oxathiazepin-2-yl)methyl)phenyl)propanoic acid] is lower in EC50: 10 to 100 nM for the first, 1 to 10 nM for the second.
